For four compounds, MIC results are on record in US5599791A, “Amides of antibiotic GE 2270 factors” (Gruppo Lepetit SPA, priority 1991, dated 1997).

In one assay the test system is Staph. haemolyticus L602. The experiment in a line: MIC, microbroth dilution. The assay is classed as cell-based. The settings on record: inocula 10^4 to 10^5 CFU/ml, Iso-Sensitest broth, 18-24 h, 37° C. On the procedure:
(§1) MIC for Propionibacterium aches, and Bacteroides fragilis are determined by agar dilution (inocula 10^4 /10^5 CFU/spot). MIC for other organisms are determined by microbroth dilution (inocula 10^4 to 10^5 CFU/ml). Incubation times are 18-24 h, except for Haemophilus influenzae, P. acnes, B. fragilis (48 h). All organisms are incubated at 37° C.; H. influenzae is incubated in a 5% CO2 atmosphere, anaerobes in an anaerobic gas mixture. Media used are: Iso-Sensitest broth (Oxoid) (Staphylococci, Streptococcus faecalis, Escherichia coli, Proteus vulgaris; brain heart infusion broth (Difco)+1% Supplement C (Difco) (H. influenzae); The minimal inhibitory concentrations (MIC, microgram/ml) for some microorganisms are reported below in Table VII.

Assay [1] has as its system Strep. pneumoniae L44 UC41. In words: MIC, microbroth dilution. The assay is classed as cell-based. The settings on record: inocula 10^4 to 10^5 CFU/ml, 18-24 h, 37° C. On the procedure:
as §1
(Broth dilution looks for growth in wells or tubes with falling amounts of substance.)

The subject of another assay is Staph. aureus L165 Tour. The experiment in a line: MIC, microbroth dilution. The assay is classed as cell-based. Conditions: inocula 10^4 to 10^5 CFU/ml, Iso-Sensitest broth, 18-24 h, 37° C. The procedure:
as §1

Assay [2] concerns Staph. epidermidis L147 ATCC 12228. The experiment in a line: MIC, microbroth dilution. The assay is classed as cell-based. The settings on record: inocula 10^4 to 10^5 CFU/ml, Iso-Sensitest broth, 18-24 h, 37° C. The procedure:
as §1

Assay [3] has as its system Haemophilus Influenzae type B. The experiment in a line: MIC, microbroth dilution. The assay is classed as cell-based. Conditions: brain heart infusion broth +1% Supplement C, 48 h, 37° C., 5% CO2. The procedure: as §1
Assay [4] has as its system Bact. fragilis L1010 ATCC 23745. The experiment in a line: MIC, agar dilution. Conditions: inocula 10^4 /10^5 CFU/spot, 48 h, 37° C., anaerobic gas mixture. The assay is classed as cell-based, Bacteroides fragilis. The procedure:
as §1

In assay [5] the test system is Prop. acnes L1014 ATCC 6919. In words: MIC, agar dilution. The assay is classed as cell-based, P. acnes. The settings on record: inocula 10^4 /10^5 CFU/spot, 48 h, 37° C., anaerobic gas mixture. The procedure: as §1
On the technique in general: Agar dilution tests growth on a series of plates holding different concentrations.

Another assay deals with Prot. vulgaris ATCC 881. The experiment in a line: MIC, microbroth dilution. The assay is classed as cell-based, Proteus vulgaris. Conditions: inocula 10^4 to 10^5 CFU/ml, Iso-Sensitest broth, 18-24 h, 37° C. On the procedure:
as §1

The test system of assay [6] is Strep. faecalis L149 ATCC 7080. In words: MIC, microbroth dilution. The assay is classed as cell-based, Streptococcus faecalis. Conditions: inocula 10^4 to 10^5 CFU/ml, Iso-Sensitest broth, 18-24 h, 37° C. On the procedure: as §1
The subject of another assay is Esch. coli L47 SKF 12140. The experiment in a line: MIC, microbroth dilution. The assay is classed as cell-based, Escherichia coli. Conditions: inocula 10^4 to 10^5 CFU/ml, Iso-Sensitest broth, 18-24 h, 37° C. The procedure:
as §1

On to `CNC(=O)CC1NC(=O)c2nc(sc2COC)C(C(C)C)NC(=O)c2csc(n2)-c2ccc(-c3nc(C(=O)NCCOCCC(=O)O)cs3)nc2-c2csc(n2)-c2csc(n2)C(C(O)c2ccccc2)NC(=O)CNC(=O)c2nc1sc2C` (stereo not shown) [Compound 41], for which the MIC is on record as 1 microgram/ml with Staph. haemolyticus L602; 2 microgram/ml in assay [1]; 0.25 microgram/ml in the assay on Staph. aureus L165 Tour; 0.5 microgram/ml in assay [2]; 1 microgram/ml in [3]; 4 microgram/ml in [4]. Moreover, the MIC in assay [5] is at most 0.13 microgram/ml; in the assay on Prot. vulgaris ATCC 881, above 128 microgram/ml; in [6], at most 0.13 microgram/ml; against Esch. coli L47 SKF 12140 it was above 128 microgram/ml.

Regarding `CNC(=O)CC1NC(=O)c2nc(sc2COC)C(C(C)C)NC(=O)c2csc(n2)-c2ccc(-c3nc(C(=O)NCCCCCC(=O)O)cs3)nc2-c2csc(n2)-c2csc(n2)C(C(O)c2ccccc2)NC(=O)CNC(=O)c2nc1sc2CO` (stereo not shown) [Compound 42], the MIC with Staph. haemolyticus L602 is 0.5 microgram/ml; in assay [1] it was 1 microgram/ml; against Staph. aureus L165 Tour, 0,13 microgram/ml; in assay [2], 0,13 microgram/ml; in assay [3], 4 microgram/ml; in assay [4] it was above 128 microgram/ml. Moreover, the MIC was 0.016 microgram/ml in assay [5], above 128 microgram/ml against Prot. vulgaris ATCC 881, 0.13 microgram/ml in assay [6] and above 128 microgram/ml in the assay with Esch. coli L47 SKF 12140.

Turning to `Cc1sc2nc1C(=O)NCC(=O)NC(C(O)c1ccccc1)c1nc(cs1)-c1nc(cs1)-c1nc(-c3nc(C(=O)NCCCCCC(=O)O)cs3)ccc1-c1nc(cs1)C(=O)NC(C(C)C)c1nc(cs1)C(=O)NC2CC(N)=O` (stereo not shown) [Compound 43], the MIC is 0.5 microgram/ml with Staph. haemolyticus L602; 0.5 microgram/ml in assay [1]; 0.13 microgram/ml in the assay on Staph. aureus L165 Tour; 0.5 microgram/ml in [2]; above 128 microgram/ml in assay [3]; above 128 microgram/ml in assay [4]. Besides, the MIC in assay [5] is listed as 0.016 microgram/ml; with Prot. vulgaris ATCC 881 it was above 128 microgram/ml; in assay [6] it was 0.13 microgram/ml; against Esch. coli L47 SKF 12140, above 128 microgram/ml.

In the case of `CNC(=O)CC1NC(=O)c2nc(sc2CO)C(C(C)C)NC(=O)c2csc(n2)-c2ccc(-c3nc(C(=O)NCCCCCC(=O)O)cs3)nc2-c2csc(n2)-c2csc(n2)C(C(O)c2ccccc2)NC(=O)CNC(=O)c2nc1sc2C` (stereo not shown) [Compound 44], the MIC against Staph. haemolyticus L602 is recorded as 1 microgram/ml; in [1], 1 microgram/ml; in the assay with Staph. aureus L165 Tour, 0.13 microgram/ml; in assay [2] it was 0.5 microgram/ml; in assay [3], above 128 microgram/ml; in assay [4], above 128 microgram/ml. Besides, the MIC in assay [5] is 0.016 microgram/ml; against Prot. vulgaris ATCC 881, above 128 microgram/ml; in assay [6], 0.06 microgram/ml; with Esch. coli L47 SKF 12140, above 128 microgram/ml.
